Experimental data from US8426604B2 (Janssen Pharmaceutica NV, priority 2010, dated 2013).
pEC50: −log10 of the molar value.

Legend:
[1] = system: Zucker fa/fa male rats; assay: Zucker fa/fa Rat Model Assay; format: in vivo; details: dosed orally once a day for 4 days, blood collected at day 5
From the text: Zucker fa/fa is a monogenic model of frank diabetes due to a mutation on the fa gene truncating the leptin receptor and preventing its interaction with its peptide hormone. This mutation results in a hyperphagic phenotype and the rodent develops obesity, hyperlipidemia, fasting hyperglycemia and insulin resistance. Zucker fa/fa male rats were received at four weeks of age and allowed to acclimate for one week. At five weeks of age the animals were single housed in cages in a temperature-controlled room with 12-hour light/dark cycle. The rats were allowed ad libitum access to water and food and throughout the study were maintained on a Purina 5008 diet. Animals were sorted based primarily on fed insulin levels and circulating triglycerides. Animals were dosed orally once a day in the morning for 4 days. The vehicle used was either 20% HPβCD (Hydroxypropyl Beta Cyclodextrin) or 15% Vitamin E/30% PEG-400 (Polyethylene Glycol 400). Fed insulin and triglycerides were measured using blood collected from the tail vein at day 5. Serum plasma samples were prepared by centrifugation in EDTA (Ethylenediaminetetraacetic acid) containing tubes, transferred into 96 well plates and stored at −80° C.

[2] = biological target: T1, ERR1 (also known as ERR-α or ERR-1) (Homo sapiens, UniProt P11474); assay: TR-FRET assay (disruption of co-activator peptide binding); format: biochemical; details: 6His-tagged ERR1LBD, GST-hSRC2 co-activator peptide; average of 3 independent experiments
T1 sequence (P11474 193-421 limits assumed): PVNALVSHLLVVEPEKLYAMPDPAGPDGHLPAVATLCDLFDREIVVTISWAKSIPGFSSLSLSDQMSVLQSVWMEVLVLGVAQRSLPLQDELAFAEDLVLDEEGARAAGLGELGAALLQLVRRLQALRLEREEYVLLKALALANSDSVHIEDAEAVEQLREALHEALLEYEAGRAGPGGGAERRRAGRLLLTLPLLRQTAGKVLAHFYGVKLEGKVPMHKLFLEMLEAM
Summary of the method: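 His6-ERR1 LBD (6 nM) with GST-SRC-2 peptide (6 nM), anti-GST Eu cryptate (30 nM) and anti-His XL665 (7.5 nM) in Tris pH 8/KCl/DTT/BSA buffer, equilibrated 4-18 h at 25 °C. Ex 340, em 615/665 nm; hyperbolic dose-response fit, mean of 3 experiments.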

Row | pEC50 [2] | SMILES | % Lowering Fed Insulin Levels [1] [%] | % Lowering Fed Triglyceride Levels [1] [%]
1 | 7.64 | CN(C1=NC(=O)/C(=C/c2ccc3c(cnn3Cc3ccc(Cl)cc3C(F)(F)F)c2)S1)[C@@H](CO)C(=O)O [Compound 15, 2S-({5-[1-(4-Chloro-2-trifluoromethyl-benzyl)-1H-indazol-5-ylmethylene]-4-oxo-4,5-dihydro-thiazol-2-yl}-methyl-amino)-3-hydroxy-propionic acid] | 40 | 41
2 | 7.74 | CN1CCC(N(C)C2=NC(=O)/C(=C/c3ccc4c(cnn4Cc4ccc(C(F)(F)F)cc4C(F)(F)F)c3)S2)CC1 [Compound 20, 5-[1-(2,4-Bis-trifluoromethyl-benzyl)-1H-indazol-5-ylmethylene]-2-[methyl-(1-methyl-piperidin-4-yl)-amino]-thiazol-4-one] | 40 | 34
3 | 7.89 | CN(C1=NC(=O)/C(=C/c2ccc3c(cnn3Cc3ccc(C(F)(F)F)cc3C(F)(F)F)c2)S1)C1CCN(CC(N)=O)CC1 [Compound 52, 2-(4-{[-5-({1-[2,4-Bis(trifluoromethyl)benzyl]-1H-indazol-5-yl}methylidene)-4-oxo-4,5-dihydro-1,3-thiazol-2-yl](methyl)amino}piperidin-1-yl)acetamide] | 30 | 38
4 | 8.29 | CN(C)CCN(C)C1=NC(=O)/C(=C/c2ccc3c(cnn3Cc3ccc(Cl)cc3C(F)(F)F)c2)S1 [Compound 5, 5-[1-(4-Chloro-2-trifluoromethyl-benzyl)-1H-indazol-5-ylmethylene]-2-[(2-dimethylamino-ethyl)-methyl-amino]-thiazol-4-one] |  | 
